Results: the supplement of paper PMC13386468

Experiments:
Assay in all cases: IC50 for competition of protein binding to Kinobeads
Conditions in all cases: assay detail: Kinobeads competition in P. falciparum blood-stage lysate
UniProt C0H4U0 = molecular target: UniProt C0H4U0
UniProt C0H5J9 = molecular target: UniProt C0H5J9
UniProt C6KTA4 = molecular target: UniProt C6KTA4
UniProt C6KTC6 = molecular target: UniProt C6KTC6
UniProt C6KTE1 = molecular target: UniProt C6KTE1
UniProt O77345 = molecular target: UniProt O77345
UniProt O97256 = molecular target: UniProt O97256
UniProt O97313 = molecular target: UniProt O97313
Sequence of UniProt O97313 (O97313 whole entry): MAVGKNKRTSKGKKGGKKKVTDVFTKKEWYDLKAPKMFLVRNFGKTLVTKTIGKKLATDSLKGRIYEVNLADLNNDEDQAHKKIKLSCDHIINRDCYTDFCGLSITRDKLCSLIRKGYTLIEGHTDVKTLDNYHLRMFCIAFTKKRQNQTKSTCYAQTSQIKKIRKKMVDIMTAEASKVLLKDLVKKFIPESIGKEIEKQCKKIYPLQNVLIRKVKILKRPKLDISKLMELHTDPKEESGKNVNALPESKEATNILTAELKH

UniProt Q76NN6 = molecular target: UniProt Q76NN6
UniProt Q7KQK3 = molecular target: UniProt Q7KQK3
UniProt Q8I283 = molecular target: UniProt Q8I283
UniProt Q8I2G2 = molecular target: UniProt Q8I2G2
UniProt Q8I323 = molecular target: UniProt Q8I323
UniProt Q8I3R0 = molecular target: UniProt Q8I3R0
UniProt Q8I3Z1 = molecular target: UniProt Q8I3Z1
UniProt Q8I463 = molecular target: UniProt Q8I463
UniProt Q8I4Y5 = molecular target: UniProt Q8I4Y5
UniProt Q8I5D2 = molecular target: UniProt Q8I5D2
Sequence of UniProt Q8I5D2 (Q8I5D2 whole entry): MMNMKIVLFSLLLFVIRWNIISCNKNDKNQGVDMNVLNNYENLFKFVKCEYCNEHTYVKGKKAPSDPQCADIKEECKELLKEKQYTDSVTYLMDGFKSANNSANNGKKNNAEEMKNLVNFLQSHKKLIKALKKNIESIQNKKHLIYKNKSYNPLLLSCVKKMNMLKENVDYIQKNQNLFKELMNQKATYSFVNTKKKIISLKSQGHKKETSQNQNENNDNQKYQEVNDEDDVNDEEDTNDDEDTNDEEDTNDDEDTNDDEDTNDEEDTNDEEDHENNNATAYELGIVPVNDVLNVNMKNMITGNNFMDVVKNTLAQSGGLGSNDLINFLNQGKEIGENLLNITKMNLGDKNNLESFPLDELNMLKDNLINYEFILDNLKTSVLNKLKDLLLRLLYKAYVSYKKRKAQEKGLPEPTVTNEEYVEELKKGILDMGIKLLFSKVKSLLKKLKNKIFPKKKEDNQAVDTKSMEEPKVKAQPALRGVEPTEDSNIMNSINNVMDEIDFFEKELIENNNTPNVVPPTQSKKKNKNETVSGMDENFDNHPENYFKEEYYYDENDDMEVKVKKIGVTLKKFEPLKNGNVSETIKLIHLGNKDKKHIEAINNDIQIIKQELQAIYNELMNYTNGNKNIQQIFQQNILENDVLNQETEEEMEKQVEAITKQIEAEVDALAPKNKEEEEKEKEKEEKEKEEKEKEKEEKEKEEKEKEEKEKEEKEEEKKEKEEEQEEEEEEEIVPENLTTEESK

UniProt Q8I5L6 = molecular target: UniProt Q8I5L6
UniProt Q8I5M2 = molecular target: UniProt Q8I5M2
UniProt Q8IAU0 = molecular target: UniProt Q8IAU0
UniProt Q8IB44 = molecular target: UniProt Q8IB44
UniProt Q8IBI0 = molecular target: UniProt Q8IBI0
UniProt Q8IBS3 = molecular target: UniProt Q8IBS3
UniProt Q8IBT7 = molecular target: UniProt Q8IBT7
UniProt Q8IBY4 = molecular target: UniProt Q8IBY4
UniProt Q8IBZ2 = molecular target: UniProt Q8IBZ2
UniProt Q8ID28 = molecular target: UniProt Q8ID28
UniProt Q8ID96 = molecular target: UniProt Q8ID96
UniProt Q8IDD4 = molecular target: UniProt Q8IDD4
UniProt Q8IDG3 = molecular target: UniProt Q8IDG3
UniProt Q8IE41 = molecular target: UniProt Q8IE41
UniProt Q8IE99 = molecular target: UniProt Q8IE99
UniProt Q8IHN4 = molecular target: UniProt Q8IHN4
UniProt Q8II23 = molecular target: UniProt Q8II23
UniProt Q8II42 = molecular target: UniProt Q8II42
UniProt Q8IIK4 = molecular target: UniProt Q8IIK4
Sequence of UniProt Q8IIK4 (Q8IIK4 whole entry): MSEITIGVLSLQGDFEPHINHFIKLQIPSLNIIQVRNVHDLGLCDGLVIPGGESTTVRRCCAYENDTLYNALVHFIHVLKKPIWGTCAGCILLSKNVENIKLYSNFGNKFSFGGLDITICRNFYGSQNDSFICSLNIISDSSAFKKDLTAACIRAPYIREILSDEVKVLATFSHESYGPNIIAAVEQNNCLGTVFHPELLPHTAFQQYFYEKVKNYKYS

UniProt Q8IIQ6 = molecular target: UniProt Q8IIQ6
UniProt Q8IIR7 = molecular target: UniProt Q8IIR7
Sequence of UniProt Q8IIR7 (Q8IIR7 whole entry): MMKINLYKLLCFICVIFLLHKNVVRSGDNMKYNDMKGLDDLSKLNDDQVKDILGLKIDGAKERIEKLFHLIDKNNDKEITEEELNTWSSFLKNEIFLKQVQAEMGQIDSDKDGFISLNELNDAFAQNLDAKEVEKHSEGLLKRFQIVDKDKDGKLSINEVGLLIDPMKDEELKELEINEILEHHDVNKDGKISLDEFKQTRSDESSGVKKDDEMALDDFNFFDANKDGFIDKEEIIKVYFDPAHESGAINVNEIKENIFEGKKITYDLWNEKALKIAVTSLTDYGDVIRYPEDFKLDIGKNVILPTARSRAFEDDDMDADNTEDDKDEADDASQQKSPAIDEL

UniProt Q8IJI0 = molecular target: UniProt Q8IJI0
UniProt Q8IJN9 = molecular target: UniProt Q8IJN9
UniProt Q8IJW3 = molecular target: UniProt Q8IJW3
UniProt Q8IJX8 = molecular target: UniProt Q8IJX8
Sequence of UniProt Q8IJX8 (Q8IJX8 whole entry): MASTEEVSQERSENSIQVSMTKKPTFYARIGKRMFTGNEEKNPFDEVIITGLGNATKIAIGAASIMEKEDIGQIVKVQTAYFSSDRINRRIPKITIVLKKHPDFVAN

UniProt Q8IKK4 = molecular target: UniProt Q8IKK4
UniProt Q8IKS3 = molecular target: UniProt Q8IKS3
UniProt Q8IKU0 = molecular target: UniProt Q8IKU0
Sequence of UniProt Q8IKU0 (Q8IKU0 whole entry): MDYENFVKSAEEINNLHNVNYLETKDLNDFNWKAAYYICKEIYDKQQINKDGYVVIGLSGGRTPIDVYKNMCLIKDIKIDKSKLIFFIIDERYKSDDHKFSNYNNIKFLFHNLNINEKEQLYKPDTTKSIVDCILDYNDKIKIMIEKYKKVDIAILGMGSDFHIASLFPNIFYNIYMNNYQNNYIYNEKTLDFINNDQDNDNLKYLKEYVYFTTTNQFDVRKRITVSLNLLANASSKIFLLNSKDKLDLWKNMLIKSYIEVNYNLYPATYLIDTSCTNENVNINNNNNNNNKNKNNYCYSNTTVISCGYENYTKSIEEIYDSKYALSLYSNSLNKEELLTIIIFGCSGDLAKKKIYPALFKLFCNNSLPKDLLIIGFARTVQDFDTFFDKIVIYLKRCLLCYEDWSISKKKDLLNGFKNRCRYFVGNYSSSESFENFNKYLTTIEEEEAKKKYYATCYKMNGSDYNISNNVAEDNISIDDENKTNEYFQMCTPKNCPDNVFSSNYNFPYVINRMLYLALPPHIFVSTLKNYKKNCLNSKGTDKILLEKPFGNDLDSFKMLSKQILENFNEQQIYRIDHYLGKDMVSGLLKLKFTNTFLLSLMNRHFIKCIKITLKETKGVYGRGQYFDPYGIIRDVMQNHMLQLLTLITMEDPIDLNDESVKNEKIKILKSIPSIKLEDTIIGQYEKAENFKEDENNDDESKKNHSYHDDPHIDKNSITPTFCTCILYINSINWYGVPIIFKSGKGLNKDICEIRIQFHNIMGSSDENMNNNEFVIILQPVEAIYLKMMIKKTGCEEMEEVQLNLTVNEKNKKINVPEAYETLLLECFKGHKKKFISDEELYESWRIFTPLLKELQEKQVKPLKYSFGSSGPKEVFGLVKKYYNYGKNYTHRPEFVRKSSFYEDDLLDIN

UniProt Q8IL80 = molecular target: UniProt Q8IL80
UniProt Q8ILK2 = molecular target: UniProt Q8ILK2
UniProt Q8ILN8 = molecular target: UniProt Q8ILN8
UniProt Q8ILY9 = molecular target: UniProt Q8ILY9
UniProt Q8IM16 = molecular target: UniProt Q8IM16
Sequence of UniProt Q8IM16 (Q8IM16 whole entry): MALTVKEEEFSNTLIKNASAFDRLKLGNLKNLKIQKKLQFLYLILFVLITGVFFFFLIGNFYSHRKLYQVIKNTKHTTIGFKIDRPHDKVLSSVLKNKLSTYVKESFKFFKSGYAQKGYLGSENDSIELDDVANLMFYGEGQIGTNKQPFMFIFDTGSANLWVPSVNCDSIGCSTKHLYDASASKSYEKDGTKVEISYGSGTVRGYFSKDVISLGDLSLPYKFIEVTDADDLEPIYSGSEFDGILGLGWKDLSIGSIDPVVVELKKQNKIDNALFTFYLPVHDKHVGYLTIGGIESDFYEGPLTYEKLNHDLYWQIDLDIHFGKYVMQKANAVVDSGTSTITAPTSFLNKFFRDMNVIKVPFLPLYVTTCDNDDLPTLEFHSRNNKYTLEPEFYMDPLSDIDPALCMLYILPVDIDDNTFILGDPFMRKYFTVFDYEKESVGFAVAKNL
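Note: native unpurified kinases from lysate captured on beads bearing immobilized kinase inhibitors, with bead-bound kinases quantified by mass spectrometry across compound doses.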

Which IC50 (UniProt C0H4U0) does the source give for O=c1[nH]c2ccc(Cl)cc2c(NC2CN3CCC2CC3)c1-c1nc2ccccc2[nH]1 (stereo unspecified) [CHIR-124] here?
Its IC50 is over 20 µM.

And the IC50 (UniProt C0H5J9)?
Its IC50 is over 20 µM.

What about the IC50 (UniProt C6KTA4) of the same molecule?
The IC50 was over 20 µM.

And the IC50 (UniProt C6KTC6)?
The IC50 was over 20 µM.

What about the IC50 (UniProt C6KTE1) of the same molecule?
The IC50 was over 20 µM.

What about the IC50 (UniProt O77345) of the same molecule?
Its IC50 is over 20 µM.

What about the IC50 (UniProt O97256) of the same molecule?
Its IC50 is over 20 µM.

And the IC50 (UniProt O97313)?
Its IC50 is over 20 µM.

What about the IC50 (UniProt Q76NN6) of the same molecule?
Its IC50 is over 20 µM.

What about the IC50 (UniProt Q7KQK3) of the same molecule?
Its IC50 is over 20 µM.

What about the IC50 (UniProt Q8I283) of the same molecule?
Its IC50 is over 20 µM.

And the IC50 (UniProt Q8I2G2)?
The IC50 was over 20 µM.

What about the IC50 (UniProt Q8I323) of the same molecule?
The IC50 was over 20 µM.

And the IC50 (UniProt Q8I3R0)?
Its IC50 is over 20 µM.

What about the IC50 (UniProt Q8I3Z1) of the same molecule?
The IC50 was over 20 µM.

And the IC50 (UniProt Q8I463)?
The IC50 was over 20 µM.

And the IC50 (UniProt Q8I4Y5)?
Its IC50 is over 20 µM.

What about the IC50 (UniProt Q8I5D2) of the same molecule?
The IC50 was over 20 µM.

And the IC50 (UniProt Q8I5L6)?
Its IC50 is over 20 µM.

What about the IC50 (UniProt Q8I5M2) of the same molecule?
Its IC50 is over 20 µM.

And the IC50 (UniProt Q8IAU0)?
The IC50 was over 20 µM.

What about the IC50 (UniProt Q8IB44) of the same molecule?
The IC50 was over 20 µM.

And the IC50 (UniProt Q8IBI0)?
Its IC50 is over 20 µM.

And the IC50 (UniProt Q8IBS3)?
The IC50 was over 20 µM.

What about the IC50 (UniProt Q8IBT7) of the same molecule?
The IC50 was over 20 µM.

What about the IC50 (UniProt Q8IBY4) of the same molecule?
Its IC50 is over 20 µM.

What about the IC50 (UniProt Q8IBZ2) of the same molecule?
The IC50 was over 20 µM.

What about the IC50 (UniProt Q8ID28) of the same molecule?
The IC50 was over 20 µM.

And the IC50 (UniProt Q8ID96)?
The IC50 was over 20 µM.

What about the IC50 (UniProt Q8IDD4) of the same molecule?
Its IC50 is over 20 µM.

And the IC50 (UniProt Q8IDG3)?
The IC50 was over 20 µM.

And the IC50 (UniProt Q8IE41)?
The IC50 was 0.375 µM.

And the IC50 (UniProt Q8IE99)?
The IC50 was over 20 µM.

What about the IC50 (UniProt Q8IHN4) of the same molecule?
Its IC50 is over 20 µM.

What about the IC50 (UniProt Q8II23) of the same molecule?
The IC50 was over 20 µM.

What about the IC50 (UniProt Q8II42) of the same molecule?
The IC50 was over 20 µM.

And the IC50 (UniProt Q8IIK4)?
Its IC50 is over 20 µM.

What about the IC50 (UniProt Q8IIQ6) of the same molecule?
Its IC50 is over 20 µM.

And the IC50 (UniProt Q8IIR7)?
Its IC50 is over 20 µM.

What about the IC50 (UniProt Q8IJI0) of the same molecule?
The IC50 was over 20 µM.

What about the IC50 (UniProt Q8IJN9) of the same molecule?
The IC50 was over 20 µM.

What about the IC50 (UniProt Q8IJW3) of the same molecule?
The IC50 was over 20 µM.

What about the IC50 (UniProt Q8IJX8) of the same molecule?
Its IC50 is over 20 µM.

And the IC50 (UniProt Q8IKK4)?
Its IC50 is over 20 µM.

What about the IC50 (UniProt Q8IKS3) of the same molecule?
The IC50 was over 20 µM.

What about the IC50 (UniProt Q8IKU0) of the same molecule?
Its IC50 is over 20 µM.

What about the IC50 (UniProt Q8IL80) of the same molecule?
Its IC50 is over 20 µM.

What about the IC50 (UniProt Q8ILK2) of the same molecule?
The IC50 was over 20 µM.

What about the IC50 (UniProt Q8ILN8) of the same molecule?
The IC50 was over 20 µM.

What about the IC50 (UniProt Q8ILY9) of the same molecule?
The IC50 was over 20 µM.

What about the IC50 (UniProt Q8IM16) of the same molecule?
The IC50 was over 20 µM.
